US7166298B2, “Genetic immunization with cationic lipids” (Invitrogen Corporation, priority 1993, dated 2007)

Assays:
[1] = test system: cell lines; conditions: certain cell lines, compared with DOTMA; cited from earlier work
[2] = test system: cell lines; conditions: transfection of certain cell lines, compared with DOTMA; cited from earlier work
[3] = test system: anti-CAT immune response in mice; assay: ELISA and Western blot after IP immunization with CAT plasmids with different promoters (Example 3); format: in vivo; conditions: compared with LIPOFECTACE
Experimental: A CAT enzyme-linked immunoassay (ELISA) was used to determine the presence of CAT antibodies in mouse sera samples. Microwell titer plates were prepared by incubating each well of the plate with 1 microgram/ml of CAT in 0.1 M sodium carbonate buffer, pH 9.5. The plates were incubated for 18 hours at 4ΕC. The wells were blocked with 0.2% ovalbumin dissolved in phosphate-buffered saline (PBS) with 0.1% Tween-20 (dilution buffer). Samples were diluted in the dilution buffer, and 200 microliters were added to a well on the plate. The plate was sealed, and then incubated for 60 minutes at 37 degrees C. Following a wash, the plates were incubated with 0.1 micrograms/ml goat anti-mouse IgG—horseradish peroxidase (HRP) conjugate. The plate was sealed and then incubated for 30 minutes at 37 degrees C. Following a second wash, the plates were developed with 3,3′,5,5′-tetramethylbenzidine substrate at room temperature. The reaction was stopped by adding 2N sulfuric acid.
The results were analyzed using Western Blot analysis. Nitrocellulose sheets were prepared by applying purified CAT protein to the nitrocellulose (0.1 micrograms CAT protein/cm nitrocellulose). Sera samples were diluted into dilution buffer and 2 ml were added to each nitrocellulose strip. The strips were incubated for 90 minutes with rocking at room temperature. […]

CCCCCCCCCCCCCCCCCCN(CCCCCCCCCCCCCCCCCC)C(=O)CNC(=O)C(CCCNCCCN)NCCCN (stereo not shown) [DOGS, 5-carboxylspermylglycine dioctadecylamide]
transfection efficiency [1]: more efficient
toxicity [2]: less toxic than DOTMA

CCCCCCCCC=CCCCCCCCCOCC(C[N+](C)(C)CCBr)OCCCCCCCCC=CCCCCCCCC.[Br-] (stereo not shown) [bromo lipid, 1-propanaminium, N-[2(2-bromo)ethyl]-N,N-dimethyl-2,3-bis(9-octadecenyloxy)-bromide]
consistency in generating an immune response (ELISA) [3]: more consistent results

CC(C)CCC[C@@H](C)[C@H]1CC[C@H]2[C@@H]3CC=C4C[C@@H](OC(=O)NCCN(C)C)CC[C@]4(C)[C@H]3CC[C@]12C [DC-Chol]
transfection efficiency [1]: more efficient transfection
toxicity [2]: lower toxicity

CCCCCCCCCCCCCCCC(=O)OCC(COP(=O)(O)OCCNC(=O)C(CCCNCCCN)NCCCN)OC(=O)CCCCCCCCCCCCCCC (stereo not shown) [DPPES, dipalmitoylphosphatidylethanolamine 5-carboxyspermylamide]
transfection efficiency [1]: more efficient
toxicity [2]: less toxic than DOTMA
